Laboratory results: patent US8937062B2, “Compositions and methods for treating, reducing, ameliorating, or preventing infections caused by antibacterial drug-resistant bacteria” (Bausch & Lomb Incorporated, priority 2007, dated 2015)
Converted amounts (≈) assume the structure as drawn.

Key:
[1] = system: S. aureus, vancomycin-resistant; test: MIC90, broth microdilution (CLSI M7-A7), Table 4; assay type: cell-based; details: 3 isolates
Procedure: (§1) The MIC90 values were determined according to the broth microdilution method outlined in the Clinical and Laboratory Standards Institute Approved Standard M7-A7 (2006).

[2] = system: S. aureus, methicillin- and ciprofloxacin-resistant; test: MIC90, broth microdilution (CLSI M7-A7), Table 4; assay type: cell-based; details: 24 isolates
Procedure: as §1

[3] = system: S. aureus, vancomycin-intermediately resistant; test: MIC90, broth microdilution (CLSI M7-A7), Table 4; assay type: cell-based; details: 23 isolates
Procedure: as §1

[4] = system: S. pneumoniae, levofloxacin-resistant; test: MIC90, broth microdilution (CLSI M7-A7), Table 4; assay type: cell-based; details: 25 isolates
Procedure: as §1

[5] = system: S. epidermidis, methicillin-resistant; test: MIC90, broth microdilution (CLSI M7-A7), Table 4; assay type: cell-based; details: 64 isolates
Procedure: as §1

[6] = system: S. pneumoniae, penicillin-intermediately resistant; test: MIC90, broth microdilution (CLSI M7-A7), Table 4; assay type: cell-based; details: 26 isolates
Procedure: as §1

[7] = system: S. pneumoniae, penicillin-resistant; test: MIC90, broth microdilution (CLSI M7-A7), Table 4; assay type: cell-based; details: 26 isolates
Procedure: as §1

[8] = system: E. cloacae, extended-spectrum β-lactamase positive; test: MIC90, broth microdilution (CLSI M7-A7), Table 4; assay type: cell-based; details: 15 isolates
Procedure: as §1

[9] = system: H. influenzae, β-lactamase positive; test: MIC90, broth microdilution (CLSI M7-A7), Table 4; assay type: cell-based; details: 53 isolates
Procedure: as §1

[10] = system: H. influenzae, β-lactamase positive, ampicillin-resistant; test: MIC90, broth microdilution (CLSI M7-A7), Table 4; assay type: cell-based; details: 25 isolates
Procedure: as §1

[11] = system: S. aureus, methicillin-resistant and ciprofloxacin-sensitive; test: MIC90, broth microdilution (CLSI M7-A7), Table 4; assay type: cell-based; details: 25 isolates
Procedure: as §1

[12] = system: S. aureus Clinical Isolates; test: In vitro activity against clinical isolates, sixth test, Table 7; assay type: cell-based; details: 49 isolates
[13] = system: S. pneumoniae Clinical Isolates; test: as above; assay type: cell-based; details: 78 isolates
[14] = system: Methicillin-Resistant S. aureus Isolates; test: In vitro anti-bacterial activity, fourth test, Table 5; assay type: cell-based, Staphylococcus aureus
Procedure: In a fourth test, the anti-bacterial activity of the compound having Formula IV was tested against some methicillin-resistant S. aureus bacteria strains and compared to the anti-bacterial activity of three commercially available antibiotics: nadifloxacin (“NDFX”), ofloxacin (“OFLX”), and sparfloxacin (“SPFX”).

GM-resistant S. aureus = test: MIC90, agar plate dilution method (NCCLS), Table 2; assay type: cell-based; details: 10 isolates
Procedure: (§2) The MIC90 values for this test were determined by the agar plate dilution method according to the National Committee for Clinical Laboratory Standards (“NCCLS”).

OFLX-resistant S. aureus = test: MIC90, agar plate dilution method (NCCLS), Table 2; assay type: cell-based; details: 10 isolates
Procedure: as §2

[15] = system: APC-resistant Haemophilus influenza.; test: MIC90, agar plate dilution method (NCCLS), Table 2; assay type: cell-based; details: APC-resistant Haemophilus influenza., 10 isolates
Procedure: as §2

[16] = system: OFLX-resistant Enterobacteriaceae; test: MIC90, agar plate dilution method (NCCLS), Table 2; assay type: cell-based; details: OFLX-resistant Enterobacteriaceae, 10 isolates
Procedure: as §2

[17] = system: GM-resistant P. aeruginosa; test: MIC90, agar plate dilution method (NCCLS), Table 2; assay type: cell-based; details: 10 isolates
Procedure: as §2

[18] = system: PCG-resistant S. pneumoniae; test: MIC90, agar plate dilution method (NCCLS), Table 2; assay type: cell-based; details: 10 isolates
Procedure: as §2

[19] = system: Ofloxacin-resistant Enterobacteriaceae; test: organism not typed; assay type: cell-based; details: Ofloxacin-resistant Enterobacteriaceae, clinical isolates, fifth test
From the text: (§3) As disclosed above, most of these bacteria strains are also relevant to infections of the ear and upper respiratory tract.

[20] = system: Penicillin-resistant Streptococcus pneumoniae; test: In vitro anti-bacterial activity, resistant clinical isolates, fifth test, Table 6; assay type: cell-based
From the text: as §3

[21] = system: Gentamicin-resistant Pseudomonas aeruginosa; test: as above; assay type: cell-based
From the text: as §3

[22] = system: Ofloxacin-resistant Staphylococcus aureus; test: as above; assay type: cell-based
From the text: as §3

[23] = system: Gentamicin-resistant Staphylococcus aureus; test: as above; assay type: cell-based
From the text: as §3

[24] = system: methicillin-resistant S. aureus; test: MIC90, Japanese Society of Chemotherapy guidelines (1993), Table 3; assay type: cell-based
Procedure: (§4) In a second test, compounds having Formulae IV and V, their racemic mixture, and OFLX were tested in vitro against S. aureus strains that are resistant to methicillin or penicillin. The test was conducted according to the guidelines of the Japanese Society of Chemotherapy (1993).

[25] = system: penicillin-resistant S. aureus; test: as above; assay type: cell-based
Procedure: as §4

N[C@@H]1CCCCN(c2c(F)cc3c(=O)c(C(=O)O)cn(C4CC4)c3c2Cl)C1 [Compound IV]
MIC90 Geometric Mean [1]: 1.587 µg/mL (≈ 4.03 µM)
MIC90 Range [1]: 1 to 4 µg/mL
MIC90 Geometric Mean [2]: 1.542 µg/mL (≈ 3.92 µM)
MIC90 Range [2]: 0.5 to 8 µg/mL
MIC90 Value [2]: 8 µg/mL (≈ 20.3 µM)
MIC90 Geometric Mean [3]: 0.652 µg/mL (≈ 1.66 µM)
MIC90 Range [3]: 0.03 to 2 µg/mL
MIC90 Value [3]: 2 µg/mL (≈ 5.08 µM)
MIC90 Geometric Mean [4]: 1.028 µg/mL (≈ 2.61 µM)
MIC90 Range [4]: 0.5 to 8 µg/mL
MIC90 Value [4]: 2 µg/mL (≈ 5.08 µM)
MIC90 Geometric Mean [5]: 0.397 µg/mL (≈ 1.01 µM)
MIC90 Value [5]: 8 µg/mL (≈ 20.3 µM)
MIC90 Geometric Mean [6]: 0.120 µg/mL (≈ 0.305 µM)
MIC90 Range [6]: 0.06 to 2 µg/mL
MIC90 Value [6]: 0.12 µg/mL (≈ 0.305 µM)
MIC90 Geometric Mean [7]: 0.108 µg/mL (≈ 0.274 µM)
MIC90 Range [7]: 0.06 to 0.12 µg/mL
MIC90 Value [7]: 0.12 µg/mL (≈ 0.305 µM)
MIC90 Geometric Mean [8]: 4.595 µg/mL (≈ 11.7 µM)
MIC90 Value [8]: >8 µg/mL
MIC90 Geometric Mean [9]: 0.027 µg/mL (≈ 0.0686 µM)
MIC90 Range [9]: 0.015 to 0.06 µg/mL
MIC90 Value [9]: 0.03 µg/mL (≈ 0.0762 µM)
MIC90 Geometric Mean [10]: 0.044 µg/mL (≈ 0.112 µM)
MIC90 Range [10]: 0.015 to 0.25 µg/mL
MIC90 Value [10]: 0.12 µg/mL (≈ 0.305 µM)
MIC90 Geometric Mean [11]: 0.033 µg/mL (≈ 0.0838 µM)
MIC90 Range [11]: 0.015 to 1 µg/mL
MIC90 Value [11]: 0.06 µg/mL (≈ 0.152 µM)
MIC90 Range [12]: 0.015 to 2 µg/mL
MIC90 Value [12]: 0.25 µg/mL (≈ 0.635 µM)
MIC90 Range [13]: 0.03 to 0.12 µg/mL
MIC90 Value [13]: 0.12 µg/mL (≈ 0.305 µM)
MIC90 ([14]; Staphylococcus aureus (ATCC 33591)): 0.012 µg/mL (≈ 0.0305 µM)
MIC90 ([14]; Staphylococcus aureus (ATCC 33592)): 0.05 µg/mL (≈ 0.127 µM)
MIC90 ([14]; Staphylococcus aureus (ATCC 33593)): 0.012 µg/mL (≈ 0.0305 µM)
MIC90 ([14]; Staphylococcus aureus (No. 395)): 0.006 µg/mL (≈ 0.0152 µM)
MIC90 ([14]; Staphylococcus aureus (No. 415)): 0.05 µg/mL (≈ 0.127 µM)
MIC90 ([14]; Staphylococcus aureus (No. 419)): 0.1 µg/mL (≈ 0.254 µM)
MIC90 ([14]; Staphylococcus aureus (No. 420)): 0.1 µg/mL (≈ 0.254 µM)
MIC90 ([14]; Staphylococcus aureus (No. 421)): 0.2 µg/mL (≈ 0.508 µM)
MIC90 Geometric Mean (GM-resistant S. aureus): 0.65 µg/mL (≈ 1.65 µM)
MIC90 Range (GM-resistant S. aureus): ≦0.006-8 μg/ml
MIC90 Value (GM-resistant S. aureus): 4 µg/mL (≈ 10.2 µM)
MIC90 Geometric Mean (OFLX-resistant S. aureus): 2.14 µg/mL (≈ 5.43 µM)
MIC90 Range (OFLX-resistant S. aureus): 0.5 to 8 µg/mL
MIC90 Value (OFLX-resistant S. aureus): 8 µg/mL (≈ 20.3 µM)
MIC90 Geometric Mean [15]: ≦0.06 μg/ml
MIC90 Range [15]: ≦0.06 μg/ml
MIC90 Value [15]: ≦0.06 μg/ml
MIC90 Geometric Mean [16]: 11.3 µg/mL (≈ 28.7 µM)
MIC90 Range [16]: 4 to 32 µg/mL
MIC90 Value [16]: 16 µg/mL (≈ 40.6 µM)
MIC90 Geometric Mean [17]: 5.28 µg/mL (≈ 13.4 µM)
MIC90 Range [17]: 0.5 to 32 µg/mL
MIC90 Value [17]: 32 µg/mL (≈ 81.3 µM)
MIC90 Geometric Mean [18]: 0.10 µg/mL (≈ 0.254 µM)
MIC90 Range [18]: ≦0.06-0.13 μg/ml
MIC90 Value [18]: 0.13 µg/mL (≈ 0.33 µM)
MIC90 [19]: 16 µg/mL (≈ 40.6 µM)
MIC90 [20]: 0.13 µg/mL (≈ 0.33 µM)
MIC90 [21]: 32 µg/mL (≈ 81.3 µM)
MIC90 [22]: 8 µg/mL (≈ 20.3 µM)
MIC90 [23]: 4 µg/mL (≈ 10.2 µM)
MIC90 ([24]; S. aureus (ATCC 33591)): 0.025 µg/mL (≈ 0.0635 µM)
MIC90 ([24]; S. aureus (ATCC 33592)): 0.012 µg/mL (≈ 0.0305 µM)
MIC90 ([24]; S. aureus (ATCC 33593)): 0.025 µg/mL (≈ 0.0635 µM)
MIC90 ([24]; S. aureus (No. 395)): 0.025 µg/mL (≈ 0.0635 µM)
MIC90 ([24]; S. aureus (No. 415)): 0.012 µg/mL (≈ 0.0305 µM)
MIC90 ([24]; S. aureus (No. 419)): 0.025 µg/mL (≈ 0.0635 µM)
MIC90 ([24]; S. aureus (No. 420)): 0.012 µg/mL (≈ 0.0305 µM)
MIC90 ([24]; S. aureus (No. 421)): 0.025 µg/mL (≈ 0.0635 µM)
MIC90 ([25]; S. aureus (ATCC 11632)): 0.025 µg/mL (≈ 0.0635 µM)
MIC90 ([25]; S. aureus (ATCC 13301)): 0.012 µg/mL (≈ 0.0305 µM)
